According to patent US9279010B2, “Treatment of inflammatory bowel diseases with mammal beta defensins” (Defensin Therapeutics ApS, priority 2008, dated 2016):
Where no end group is shown, it is not given here.

Assays:
human PBMC = assay: IL-23 in supernatants of human PBMC, ELISA (Example 6, Table 25); format: cell-based
Protocol: (§1) Peripheral blood was drawn from healthy volunteers (with approval from the relevant ethical committee in Denmark). Heparinized blood was diluted 1/1 v/v with RPMI and were subjected to Ficoll density centrifugation within 2 h of drawing. Plasma was collected from the top from individual donors and was kept on ice until it was used at 2% in the culture medium (autologous culture medium). Isolated PBMC were resuspended in autologous culture medium and seeded in 96-well culture plates with 255.000 cells per well in a total of 200 μl. […] The concentrations used for stimulation were optimized on 3 different donors in initial experiments, for LPS two different concentrations were used to be sure to be on a cytokine level that is possible to modulate. In some experiments PBMC were treated with Dexamethason and Indomethacin alone and together with LPS or LTA as a control on downregulation of inflammatory cytokines. The supernatants were collected after incubation at 37° C. for 24 hours, and stored at −80° C. until cytokine measurement. Viability was measured by Alamar Blue (Biosource, DALL 1100) in all experiments and in some cases also by MTS (Promega) according to manufacturer's instruction and was in some experiments also judged by counting of the cells by a Nucleocounter.
Example 6 was carried out essentially as described in Example 4 for human PBMCs; however, the readout was IL-23 instead of TNF, IL-1β and IL-10. Moreover, the effect of rhBD2 on human monocyte-derived dendritic cells was also investigated.
Cell culture supernatants were collected and stored at −80° C. Amounts of IL-23 was measured by standard sandwich ELISA using commercially available antibodies and standards according to the manufacturer's protocols (eBioscience).
All experiments were performed at least twice, with representative results shown. The data presented are expressed as mean plus/minus standard deviation […]. […] Differences were considered significant for p<0.05.

[1] = test system: human peripheral blood mononuclear cells (PBMC); assay: TNF production from LPS-treated human PBMC, CBA (Example 7, Table 26); format: cell-based; conditions: test compound 1 μg/ml
Protocol: as §1
(§2) Cytokine production in supernatants was measured by flow cytometry with a human inflammation cytometric bead array (CBA) according to manufacturer's instructions (BD) on a FACSarray flow cytometer. The following cytokines were measured: IL-8, IL-1β, IL-10, TNF, IL-12 p70, IL-6. In some experiments, cytokines were measured by ELISA kits from R&D systems (IL-10, TNF-α, IL-1β) according to the manufacturer′ instruction.
(§3) Example 7 was carried out essentially as described in Example 4 for human PBMCs. […] The amino acid sequence of mBD3 is shown in SEQ ID NO:6. Mouse PBMCs were prepared as described below.

[2] = test system: mouse peripheral blood mononuclear cells (PBMC); assay: TNF production from LPS-treated mouse PBMC, CBA (Example 7); format: cell-based, mouse (NMRI); conditions: 1 μg/ml
Protocol: as §3
Mouse peripheral blood mononuclear cells were isolated from blood of ten NMRI mice. In short, heparinized blood was diluted 1/1 v/v with RPMI and subjected to Ficoll density centrifugation within 2 h of drawing. Plasma was collected from the top and discarded. Isolated PBMC were resuspended in culture medium (RPMI 1640 (Gibco, 42401) w/ 1% penicillin and streptomycin and 1% L-Glutamine) and seeded in 96-well culture plates with 115.500 cells per well in a total of 200 μl. […] The supernatants were collected after incubation at 37° C. for 24 hours, and stored at −80° C. until cytokine measurement.
Cytokine production in supernatants was measured by flow cytometry with a mouse inflammation cytometric bead array (CBA) according to manufacturer's instructions (BD) on a FACSarray flow cytometer.

[3] = test system: human peripheral blood mononuclear cells (PBMC); assay: IL-10 production from LPS-treated human PBMC, CBA (Example 5); format: cell-based; conditions: Table 22
Protocol: as §1, §2
(§4) In each table, all samples were tested on the same donor. SD means standard deviation.

[4] = test system: human peripheral blood mononuclear cells (PBMC); assay: TNF production from LPS-treated human PBMC, CBA (Example 5); format: cell-based; conditions: Table 21
Protocol: as §1, §2
(§5) Example 5 was carried out essentially as described in Example 4.
as §4

[5] = test system: human peripheral blood mononuclear cells (PBMC); assay: IL-1β production from LPS-treated human PBMC, CBA (Example 5, Table 23); format: cell-based
Protocol: as §1, §2, §5, §4

[6] = concentration not given, LPS 0.6 ng/ml
[7] = concentration not given, LPS 20 ng/ml
[8] = concentration not given, Medium
[9] = LPS 0.6 ng/ml, test compound 1 μg/ml
[10] = LPS 20 ng/ml, test compound 1 μg/ml
[11] = LPS 0.6 ng/ml, concentration of test compound not given
[12] = LPS 20 ng/ml, concentration of test compound not given
[13] = LPS 0.6 ng/ml, test compound 10 μg/ml
[14] = LPS 0.6 ng/ml, test compound 40 μg/ml
[15] = LPS 20 ng/ml, test compound 10 μg/ml
[16] = LPS 20 ng/ml, test compound 40 μg/ml

## C[C@@H]1C[C@H]2[C@@H]3CCC4=CC(=O)C=C[C@]4(C)[C@@]3(F)[C@@H](O)C[C@]2(C)[C@@]1(O)C(=O)CO [Dexamethasone]
Human PBMC; Control (medium), test compound 3.5 ng/ml
  IL-23 pg/ml: 222 pg/mL
Human PBMC; LTA 5 μg/ml, test compound 3.5 ng/ml
  IL-23 pg/ml: 223 pg/mL

## Infliximab: anti-inflammatory compound, positive control on downregulation of TNF [reference compound]
[1]; LPS 20 ng/ml
  TNF: 1 pg/mL
[1]; Medium (no LPS)
  TNF: 0 pg/mL
[2]; LPS 20 ng/ml
  TNF: 2119 pg/mL
[2]; Medium
  TNF: 530 pg/mL
[3]; [6]
  IL-10: 46 pg/mL
  IL-10 % of control: 69%
[3]; [7]
  IL-10: 63 pg/mL
  IL-10 % of control: 56%
[3]; [8]
  IL-10: 0 pg/mL
Human PBMC; Control (medium), test compound 1 μg/ml
  IL-23 pg/ml: 227 pg/mL
Human PBMC; [9]
  IL-23 pg/ml: 356 pg/mL
Human PBMC; [10]
  IL-23 pg/ml: 373 pg/mL
Human PBMC; LTA 5 μg/ml, test compound 1 μg/ml
  IL-23 pg/ml: 349 pg/mL
[4]; [6]
  TNF: 0 pg/mL
  TNF % of control: 0%
[4]; [7]
  TNF: 0 pg/mL
  TNF % of control: 0%
[4]; [8]
  TNF: 0 pg/mL
[5]; [11]
  IL-1β: 636 pg/mL
  IL-1β % of control: 86%
[5]; [12]
  IL-1β: 2704 pg/mL
  IL-1β % of control: 106%
[5]; Medium (no LPS), concentration of test compound not given
  IL-1β: 0 pg/mL

## hBD1: human beta defensin 1 (SEQ ID NO:1), prepared using chemical synthesis (DHYNCVSSGGQCLYSACPIFTKIQGTCYRGKAKCCK; not fully specified; cysteine pairing not given here; listed as Homo sapiens)
[3]; 1 μg/ml, LPS 0.6 ng/ml
  IL-10: 71 pg/mL
  IL-10 % of control: 108%
[3]; 1 μg/ml, LPS 20 ng/ml
  IL-10: 95 pg/mL
  IL-10 % of control: 85%
[3]; 1 μg/ml, Medium
  IL-10: 0 pg/mL
[3]; 10 μg/ml, LPS 0.6 ng/ml
  IL-10: 76 pg/mL
  IL-10 % of control: 114%
[3]; 10 μg/ml, LPS 20 ng/ml
  IL-10: 100 pg/mL
  IL-10 % of control: 90%
[3]; 10 μg/ml, Medium
  IL-10: 0 pg/mL
[3]; 40 μg/ml, LPS 0.6 ng/ml
  IL-10: 69 pg/mL
  IL-10 % of control: 104%
[3]; 40 μg/ml, LPS 20 ng/ml
  IL-10: 113 pg/mL
  IL-10 % of control: 102%
[3]; 40 μg/ml, Medium
  IL-10: 0 pg/mL
[4]; 1 μg/ml, LPS 0.6 ng/ml
  TNF: 474 pg/mL
  TNF % of control: 65%
[4]; 1 μg/ml, LPS 20 ng/ml
  TNF: 1395 pg/mL
  TNF % of control: 64%
[4]; 1 μg/ml, Medium
  TNF: 1 pg/mL
[4]; 10 μg/ml, LPS 0.6 ng/ml
  TNF: 203 pg/mL
  TNF % of control: 28%
[4]; 10 μg/ml, LPS 20 ng/ml
  TNF: 1311 pg/mL
  TNF % of control: 61%
[4]; 10 μg/ml, Medium
  TNF: 0 pg/mL
[4]; 40 μg/ml, LPS 0.6 ng/ml
  TNF: 91 pg/mL
  TNF % of control: 13%
[4]; 40 μg/ml, LPS 20 ng/ml
  TNF: 999 pg/mL
  TNF % of control: 46%
[4]; 40 μg/ml, Medium
  TNF: 0 pg/mL
[5]; [9]
  IL-1β: 512 pg/mL
  IL-1β % of control: 69%
[5]; [13]
  IL-1β: 401 pg/mL
  IL-1β % of control: 54%
[5]; [14]
  IL-1β: 302 pg/mL
  IL-1β % of control: 41%
[5]; [10]
  IL-1β: 2087 pg/mL
  IL-1β % of control: 82%
[5]; [15]
  IL-1β: 1913 pg/mL
  IL-1β % of control: 75%
[5]; [16]
  IL-1β: 1599 pg/mL
  IL-1β % of control: 63%
[5]; Medium (no LPS), test compound 1 μg/ml
  IL-1β: 0 pg/mL
[5]; Medium (no LPS), test compound 10 μg/ml
  IL-1β: 0 pg/mL
[5]; Medium (no LPS), test compound 40 μg/ml
  IL-1β: 0 pg/mL
